Here are results for 6 compounds from patent US20120202819A1, “COMBINATION THERAPY USING A BETA 3 […] RECEPTOR AGONISTS AND AN […] AGENT” (Merck Sharp & Dohme Corporation, priority 2009, published 2012).

Broadly, the Ki is a dissociation constant, usually derived from enzyme kinetics or from competition with a known ligand.

Where two headings read alike, the source gives them in different places.

The subject of assay [1] is distention-induced rhythmic bladder contraction. In words: Distention-induced rhythmic bladder contraction in anesthetized female rats. Type of assay: in vivo, SD rats. As to conditions: iv, single dosing, urethane-anesthetized female rats. The protocol: • OXY, 0.01, 0.03, 0.1 mg/kg, iv; […].
Next, combination dosing regimens shown below in Table 7 were conducted to compose an isobologram. There were 9 groups in total. ID20 values of OXY and CL was calculated in each combination rate.

Assay [2] addresses T1, muscarinic receptor M1 (Homo sapiens, UniProt P11229).
T1 sequence (P11229 1-460): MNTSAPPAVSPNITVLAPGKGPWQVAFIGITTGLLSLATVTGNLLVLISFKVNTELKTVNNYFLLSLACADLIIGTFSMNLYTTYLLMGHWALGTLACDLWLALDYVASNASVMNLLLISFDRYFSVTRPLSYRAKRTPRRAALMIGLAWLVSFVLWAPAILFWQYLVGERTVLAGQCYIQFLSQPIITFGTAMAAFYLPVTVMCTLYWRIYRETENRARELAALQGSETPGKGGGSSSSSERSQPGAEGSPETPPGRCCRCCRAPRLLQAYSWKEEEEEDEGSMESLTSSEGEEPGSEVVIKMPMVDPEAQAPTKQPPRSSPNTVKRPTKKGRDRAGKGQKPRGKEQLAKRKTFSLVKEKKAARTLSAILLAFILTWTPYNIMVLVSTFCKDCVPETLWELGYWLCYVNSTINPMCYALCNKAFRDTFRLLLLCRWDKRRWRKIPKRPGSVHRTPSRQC
As to conditions: read-out: Ki (nM) M1, cited from earlier work.

The target of assay [3] is T2, muscarinic receptor M2 (Homo sapiens, UniProt P08172).
T2 sequence (P08172 1-466): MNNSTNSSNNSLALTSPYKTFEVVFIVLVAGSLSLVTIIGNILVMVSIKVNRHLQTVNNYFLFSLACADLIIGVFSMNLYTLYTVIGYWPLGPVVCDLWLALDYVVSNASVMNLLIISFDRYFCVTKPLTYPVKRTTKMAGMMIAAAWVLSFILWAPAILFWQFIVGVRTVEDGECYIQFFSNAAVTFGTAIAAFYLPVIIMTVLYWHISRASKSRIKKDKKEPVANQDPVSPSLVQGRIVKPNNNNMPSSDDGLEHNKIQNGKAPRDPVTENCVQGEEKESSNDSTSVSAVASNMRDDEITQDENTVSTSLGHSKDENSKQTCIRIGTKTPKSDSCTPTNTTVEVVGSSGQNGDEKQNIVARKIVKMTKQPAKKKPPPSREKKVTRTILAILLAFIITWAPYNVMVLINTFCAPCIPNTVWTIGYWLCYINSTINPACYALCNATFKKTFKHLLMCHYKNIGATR
As to conditions: Ohtake et al.; cited from earlier work.

For assay [4], the target named is T3, muscarinic receptor M3 (Homo sapiens, UniProt P20309). As to conditions: cited from earlier work.
T3 sequence (P20309 whole entry): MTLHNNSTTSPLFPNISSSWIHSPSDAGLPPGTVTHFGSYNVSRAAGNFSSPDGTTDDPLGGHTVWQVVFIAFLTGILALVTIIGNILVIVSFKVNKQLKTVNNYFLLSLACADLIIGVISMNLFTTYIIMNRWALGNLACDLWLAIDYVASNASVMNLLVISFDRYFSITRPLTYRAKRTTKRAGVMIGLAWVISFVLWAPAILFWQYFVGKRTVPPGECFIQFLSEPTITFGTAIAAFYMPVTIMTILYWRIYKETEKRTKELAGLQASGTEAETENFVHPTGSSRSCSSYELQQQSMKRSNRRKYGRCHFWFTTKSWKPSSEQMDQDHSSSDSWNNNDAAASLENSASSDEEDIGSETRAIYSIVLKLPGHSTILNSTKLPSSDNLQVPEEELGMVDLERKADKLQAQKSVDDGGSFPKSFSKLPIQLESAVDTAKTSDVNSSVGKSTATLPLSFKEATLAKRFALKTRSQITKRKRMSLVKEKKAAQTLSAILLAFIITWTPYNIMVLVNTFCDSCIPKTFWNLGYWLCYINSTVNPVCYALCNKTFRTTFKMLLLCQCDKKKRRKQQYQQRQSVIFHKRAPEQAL
Another assay has as its target T4, muscarinic receptor M4 (Homo sapiens, UniProt P08173).
T4 sequence (P08173 1-479): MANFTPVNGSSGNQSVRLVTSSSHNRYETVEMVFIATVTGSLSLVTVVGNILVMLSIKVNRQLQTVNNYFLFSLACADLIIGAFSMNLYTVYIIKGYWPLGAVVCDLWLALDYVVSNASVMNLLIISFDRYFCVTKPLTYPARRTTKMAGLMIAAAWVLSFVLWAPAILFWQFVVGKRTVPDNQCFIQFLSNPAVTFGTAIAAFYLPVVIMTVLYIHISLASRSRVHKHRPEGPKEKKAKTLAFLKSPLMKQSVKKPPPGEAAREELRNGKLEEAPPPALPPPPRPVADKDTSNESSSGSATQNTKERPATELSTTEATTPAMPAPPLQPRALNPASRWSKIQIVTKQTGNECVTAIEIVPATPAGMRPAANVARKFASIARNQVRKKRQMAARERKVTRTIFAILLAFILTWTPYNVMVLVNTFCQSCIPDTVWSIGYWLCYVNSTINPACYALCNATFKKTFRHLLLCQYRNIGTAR
As to conditions: Ohtake et al.; cited from earlier work.

Assay [5] deals with EFS-induced isolated detrusor muscle contractions. In words: EFS-induced contraction of isolated rat detrusor muscle strips, with isobologram analysis. As to conditions: single compound, rat bladder strips, EFS. Details: species or system Sprague-Dawley rats. The protocol: Male adult Sprague-Dawley rats were used. After euthanizing using CO2 gas, a whole bladder was removed. Longitudinal strips (about 6 mm×3 mm) of the extratrigonal portion of the detrusor muscle were prepared. […] The strips were tied at one end to the organ bath, and connected at the other end to an isometric transducer (AD Instruments) under a resting tension of 10 mN. The responses of the preparations were recorded at a sampling rate of 10 Hz by a multiple channel data acquisition system (PowerLab, AD Instruments), and measured with an analysis software (Chart, AD Instruments). After the equilibration period for at least 60 min, each tissue strip was challenged to electrical field stimulation (EFS) at 60 Hz; duration, 0.3 ms; 3 sec; 90 V to induce contractions. Upon obtaining stable contractions with EFS, compound solution (25 μL) was applied into organ bath in a cumulative manner. After 15 min of each compound treatment, EFS was applied.
Isobologram Analysis was used to evaluate the synergic effect of a combination therapy. Isobologram Analysis provides a visual assessment of the interaction of two different agents using independent statistical analysis. The statistical analysis can be accomplished from calculations of certain potency indices from single treatment of each compound and fixed-ratio combinations for the same effect.
Isobologram for some particular effect (e.g., 50% of the maximum) in which the dose of active agent A alone is A=20 and active agent B alone is B=100. The straight line connecting these intercept points (additivity line) is the locus of all dose pairs that, based on these potencies, should give the same effect, An actual dose pair such as point Q attains this effect with lesser quantities and is synergistic (or super-additive), while the dose pair denoted by point R means greater quantities are required and is therefore sub-additive.

Another assay has as its system bladder capacity. In words: Bladder capacity (cystometry) in anesthetized rhesus monkeys. Format: in vivo, rhesus monkeys (Macaca mulatta). As to conditions: mean of 4-6 animals. An excerpt:
Adult female rhesus monkeys (Macaca mulatta) weighed 5.3-6.2 kg (4-7 year-old) were used. The subjects were either paired or individually housed on a 12-h light/12-h dark cycle (lights on at 7:00 AM). Their diet consisted of 2050 Teklad (Harlan Laboratories, Indianapolis, Ind.) and fresh fruit or vegetable. Water was freely available. All animals were observed daily by a veterinary technician and caretakers for signs of ill health. Subjects were repeatedly used with >13-day resting period. Monkeys were anesthetized with an intramuscular injection of either Telazol (3-5 mg/kg) or ketamine (10-20 mg/kg) followed by intravenous constant rate infusion with ketamine (0.2-0,8 mg/kg/min) using a syringe pump (552222, Harvard Apparatus, Holliston, Mass.). Animals were placed in a supine position and a triple lumen balloon transurethral catheter (7.4 Fr, Cook Medical, Bloomington, Ind.) was inserted into the bladder and the balloon was inflated with 1 mL of water to secure the tip of catheter at the bladder base. The catheter was connected with an infusion pump (Gemini PC-2TX, ALARIS Medical Systems, San Diego, Calif.) for bladder filling and a pressure transducer for intravesical pressure monitoring. Intravesical pressure was continuously recorded using a multiple channel data acquisition system (Power lab, AD Instruments, Biopac systems, Colorado Springs, Colo.) at a sampling rate of 20 Hz. After confirming bladder emptiness by an ultrasonography (Logiq e vet, GE Medical Systems, Waukesha, Wis., FIG. 1A), saline was intravesically infused at 15 mL/min. When the steep rise in pressure indicative of the micturition reflex was observed, intravesical infusion was stopped and the bladder was manually emptied with a 60 ml syringe.
After two baseline cystometry readings, drug was intravenously administered three times using a rising dose paradigm with a cystometry performed 10 min after each dose. Bladder capacity was measured for each cystometry and % change from the baseline capacity was calculated. As used herein, the term “baseline capacity” or “baseline” means the average bladder capacity from two pre-dose measurements.
The reported results are mean values of % change from baseline in 4-6 animals.

Assay [6] has as its target T1, muscarinic receptor M1. The settings on record: Hegde et al.; cited from earlier work.
In assay [7] the target is T2, muscarinic receptor M2. The settings on record: Hegde et al.; cited from earlier work.
Assay [8] concerns the target T3, muscarinic receptor M3. The settings on record: Hegde et al.; cited from earlier work.

Consider `CCN(CC)CC#CCOC(=O)C(O)(c1ccccc1)C1CCCCC1` (centres unmarked) [Oxybutynin, 4-diethylaminobut-2-ynyl2-cyclohexyl-2-hydroxy-2-phenyl-ethanoate], for which the “ID20 (dose decreasing amplitude by 20%)” value in [1] stood at 0.057 MPK.

Take `O=C(O[C@H]1CN2CCC1CC2)N1CCc2ccccc2[C@@H]1c1ccccc1` [Solifenacin]: the Ki at muscarinic receptor M1 [2] was 26 ± 2 nM; at muscarinic receptor M2 [3], 170 ± 37 nM; at muscarinic receptor M3 [4] (Ohtake et al.), 12 ± 4.4 nM; at muscarinic receptor M4, 110 ± 45 nM. Moreover, the M2/M3 ratio on muscarinic receptor M3 [4] was 14.

In the case of `Cc1ccc(O)c([C@@H](CCN(C(C)C)C(C)C)c2ccccc2)c1` [Tolterodine, 2-[(1S)-3-(diisopropylamino)-1-phenylpropyl]-4-methylphenol], in [5], the “IC25 (concentration which induced 25% inhibition of detrusor contraction)” value amounted to 4.71 nM. Further, the “Bladder capacity, % change from baseline” value in the assay on bladder capacity (mono-therapy 0.01 mg/kg iv, listed as TOL) is listed as 8.6%; with bladder capacity (mono-therapy 0.03 mg/kg iv, listed as TOL), 16.8%; in the assay with bladder capacity (mono-therapy 0.1 mg/kg iv), 40.3%. In addition, the inhibitory constant (Ki) on muscarinic receptor M1 [2] was 2.7 ± 0.23 nM; on muscarinic receptor M4, 6.6 ± 1.7 nM.

`CCCOC(C(=O)OC1CCN(C)CC1)(c1ccccc1)c1ccccc1` [Propiverine]: the inhibitory constant (Ki) was 490 ± 110 nM at muscarinic receptor M1 [2] (Ohtake et al.), 1400 ± 220 nM on muscarinic receptor M2 [3], 350 ± 53 nM at muscarinic receptor M3 [4] (Ohtake et al.) and 900 ± 200 nM at muscarinic receptor M4. Further, the M2/M3 ratio at muscarinic receptor M3 [4] (Ohtake et al., ratio of Ki M2 to Ki M3) is listed as 4.

On to `O=C(O[C@H]1C[C@H]2CC[C@@H](C1)[N+]21CCCC1)C(O)(c1ccccc1)c1ccccc1` [Trospium], for which the Ki is 0.75 nM at muscarinic receptor M1 [6], 0.65 nM at muscarinic receptor M2 [7] and 0.5 nM on muscarinic receptor M3 [8]. Also, on muscarinic receptor M3 [8], the M2/M3 ratio is listed as 1.

In the case of `C[C@H](Cc1ccc2c(c1)OC(C(=O)[O-])(C(=O)[O-])O2)NC[C@H](O)c1cccc(Cl)c1.[Na+].[Na+]` [CL316243, disodium (R,R)-5-(2-((2-(3-ehlorophenyl)-2-hydroxyethyl)-amino)propyl)-1,3-benzodioxole-2,3-dicarboxylate], the “IC25 (concentration which induced 25% inhibition of detrusor contraction)” value in assay [5] was found to be 2.86 nM. In [1], the “ID20 (dose decreasing amplitude by 20%)” value came out at 0.024 MPK.
